Results from patent US11285227B2, “Trifunctional constructs with tunablepharmacokinetics useful in imaging and anti-tumor therapies” (CORNELL UNIVERSITY, priority 2017, dated 2022).

Tests used:
PSMA on LNCaP cells [1] = molecular target: T1, PSMA on LNCaP cells (Homo sapiens, UniProt Q04609); assay: cell-based
Method: The PSMA expressing human prostate cancer cell line, LNCaP, was obtained from the American Type Culture Collection. […] LNCaP cells were maintained in RPMI-1640 medium supplemented with 10% fetal bovine serum (Hyclone), 4 mM L-glutamine, 1 mM sodium pyruvate, 10 mM N-2-hydroxyethylpiperazine-N-2-ethanesulfonic acid (HEPES), 2.5 mg/mL D-glucose, and 50 μg/mL gentamicin in a humidified incubator at 37° C./5% CO2. Cells were removed from flasks for passage or for transfer to 12-well assay plates by incubating them with 0.25% trypsin/ethylenediaminetetraacetic acid (EDTA).
Briefly, LNCaP cells were plated 72 h prior to the experiment to achieve a density of approximately 5×10^5 cells/well (in triplicate) in RPMI-1640 medium supplemented with 0.25% bovine serum albumin. The cells were incubated for 2 h with 1 nM ^99mTc-MIP-1427 in RPMI-1640 medium containing 0.00125% w/v bovine serum albumin [3] in the presence of 0.001-10,000 nM test compounds. Radioactive incubation media was then removed by pipette and the cells were washed twice using 1 mL ice-cold PBS 1× solution. Cells were harvested from the plates following treatment with 1 mL 1M NaOH and transferred to tubes for radioactive counting using a 2470 Wizard^2 Automatic Gamma Counter (Perkin Elmer). […] IC50 values were determined by fitting the data points to a sigmoidal Hills1 curve in Origin software.

[2] = system: LNCaP xenograft tumor-bearing mice; assay: Biodistribution of 225Ac-macropa-RPS-070 in LNCaP xenograft mice; type: in vivo; conditions: 4-96 h; no accumulation in liver, spleen, bone
Method: Cell Culture. […] Cell culture supplies were from Invitrogen unless otherwise noted.
Inoculation of Mice with Xenografts. All animal studies were approved by the Institutional Animal Care and Use Committee of Weill Cornell Medicine and were undertaken in accordance with the guidelines set forth by the USPHS Policy on Humane Care and Use of Laboratory Animals. Animals were housed under standard conditions in approved facilities with 12 h light/dark cycles. Food and water was provided ad libitum throughout the course of the studies. Hairless male nu/nu mice were purchased from the Jackson Laboratory. For inoculation in mice, LNCaP cells were suspended at 4×10^7 cells/mL in a 1:1 mixture of PBS:Matrigel (BD Biosciences). Each mouse was injected in the left flank with 0.25 mL of the cell suspension. Biodistributions were conducted when tumors were in the range 100-400 mm^3.
Biodistribution of ^225Ac-macropa-RPS-070 in LNCaP xenograft mice. […] Tissues were weighed and counted on a 2470 Wizard Automatic Gamma Counter (Perkin Elmer). 1% ID/mL samples were counted prior to and following each set of tissue samples to enable decay correction to be undertaken. Counts were corrected for decay and for activity injected, and tissue uptake was expressed as percent injected dose per gram (% ID/g). Standard error measurement was calculated for each data point.

PSMA on LNCaP cells [3] = molecular target: T1, PSMA on LNCaP cells; set-up: host or cells: LNCaP; conditions: binding to PSMA on LNCaP cells; cited from earlier work

T1 sequence (Q04609 whole entry): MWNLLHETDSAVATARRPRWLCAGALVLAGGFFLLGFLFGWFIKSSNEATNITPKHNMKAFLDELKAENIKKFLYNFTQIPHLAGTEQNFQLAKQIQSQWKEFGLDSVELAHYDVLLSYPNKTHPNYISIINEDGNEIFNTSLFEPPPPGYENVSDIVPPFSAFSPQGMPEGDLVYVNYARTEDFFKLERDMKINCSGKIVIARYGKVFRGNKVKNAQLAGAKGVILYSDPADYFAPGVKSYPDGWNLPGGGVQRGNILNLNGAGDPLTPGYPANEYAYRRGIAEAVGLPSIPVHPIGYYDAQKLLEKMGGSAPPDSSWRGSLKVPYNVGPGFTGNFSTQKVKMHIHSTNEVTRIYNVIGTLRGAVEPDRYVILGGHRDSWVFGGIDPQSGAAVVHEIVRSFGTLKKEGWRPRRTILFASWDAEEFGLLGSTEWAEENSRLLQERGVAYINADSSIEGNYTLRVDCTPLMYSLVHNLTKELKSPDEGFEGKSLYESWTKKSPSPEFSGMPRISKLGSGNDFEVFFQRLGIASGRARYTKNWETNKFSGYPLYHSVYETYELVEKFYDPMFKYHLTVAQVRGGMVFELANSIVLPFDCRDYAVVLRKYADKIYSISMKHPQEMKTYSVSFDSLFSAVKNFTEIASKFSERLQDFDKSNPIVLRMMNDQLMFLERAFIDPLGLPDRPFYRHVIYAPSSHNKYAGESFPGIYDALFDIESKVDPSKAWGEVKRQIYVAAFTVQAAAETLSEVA

O=C(O)CC[C@H](NC(=O)N[C@@H](CCCCNC(=O)Nc1cccc(-c2cn(CCOCCOCCOCCC(=O)N[C@@H](CCCCNC(=S)Nc3cc(CN4CCOCCOCCN(Cc5cccc(C(=O)O)n5)CCOCCOCC4)nc(C(=O)O)c3)C(=O)NCCOCCOCCOCCOCCOCCOCCOCCOCCC(=O)N[C@@H](CCCCNC(=O)CCCc3ccc(I)cc3)C(=O)O)nn2)c1)C(=O)O)C(=O)O [RPS-074, (((S)-1-Carboxy-5-(3-(3-(1-((14S,45S)-45-carboxy-14-(4-(3-(2-carboxy-6-((16-((6-carboxypyridin-2-yl)methyl)-1,4,10,13-tetraoxa-7,16-diazacyclooctadecan-7-yl)methyl)pyridin-4-yl)thioureido)butyl)-54-(4-iodophenyl)-12,15,43,51-tetraoxo-3,6,9,19,22,25,28,31,34,37,40-undecaoxa-13,16,44,50-tetraazatetrapentacontyl)-1H-1,2,3-triazol-4-yl)phenyl)ureido)pentyl)carbamoyl)-L-glutamic acid]
IC50 (PSMA on LNCaP cells [1]): 12 ± 3.4 nM

O=C(O)CC[C@H](NC(=O)N[C@@H](CCCCNC(=O)Nc1cccc(-c2cn(CCOCCOCCOCCOCCOCCOCCC(=O)N[C@@H](CCCCNC(=S)Nc3cc(CN4CCOCCOCCN(Cc5cccc(C(=O)O)n5)CCOCCOCC4)nc(C(=O)O)c3)C(=O)N[C@@H](CCCCNC(=O)Cc3ccc(I)cc3)C(=O)O)nn2)c1)C(=O)O)C(=O)O [macropa-RPS-070, (((S)-1-Carboxy-5-(3-(3-(1-((23S,26S)-26-carboxy-23-(4-(3-(2-carboxy-6-((16-((6-carboxypyridin-2-yl)methyl)-1,4,10,13-tetraoxa-7,16-diazacyclooctadecan-7-yl)methyl)pyridin-4-yl)thioureido)butyl)-33-(4-iodophenyl)-21,24,32-trioxo-3,6,9,12,15,18-hexaoxa-22,25,31-triazatritriacontyl)-1H-1,2,3-triazol-4-yl)phenyl)ureido)pentyl)carbamoyl)-L-glutamic acid]
Retention of 225Ac in vivo [2]: can stably retain ^225Ac in vivo over several days

^99mTc-((7S,12S,16S)-1-(1-(carboxymethyl)-1H-imidazol-2-yl)-2-((1-(carboxymethyl)-1H-imidazol-2-yl)methyl)-9,14-dioxo-2,8,13,15-tetraazaoctadecane-7,12,16,18-tetracarboxylic acid technetium tricarbonyl complex) [^99mTc-MIP-1427]
Kd (PSMA on LNCaP cells [3]): 0.64 ± 0.46 nM
